The source made the active and inactive calls. No cut-off for these calls is given here.
Assays:
[1] = Inhibition of TNFalpha induced NF-kappaB activation in human A549 cells by luciferase reporter gene assay; type: cell-based
[2] = test system: A549; test: Cytotoxicity against human A549 cells after 48 hrs by fluorescence assay; type: functional; conditions: A549, 48 h
[3] = test system: NCI-H2009; test: Cytotoxicity against human NCI-H2009 cells after 48 hrs by fluorescence assay; type: functional; conditions: NCI-H2009, 48 h
[4] = test system: Mus musculus; test: Toxicity in SCID mouse xenografted with human NCI-H2009 cells at 1 mg/day, ip treated 6 days in a week for 5 weeks; type: organism-based; conditions: in vivo
[5] = test system: Mus musculus; test: Toxicity in SCID mouse xenografted with human NCI-H2009 cells assessed as necropsy at 1 mg/day, ip treated 6 days in a week for 5 weeks; type: organism-based; conditions: in vivo
[6] = target: T1, Inhibitor of nuclear factor kappa-B kinase subunit beta (Homo sapiens) (UniProt O14920); test: Inhibition of IKK-beta at 10 uM
T1 sequence (whole entry): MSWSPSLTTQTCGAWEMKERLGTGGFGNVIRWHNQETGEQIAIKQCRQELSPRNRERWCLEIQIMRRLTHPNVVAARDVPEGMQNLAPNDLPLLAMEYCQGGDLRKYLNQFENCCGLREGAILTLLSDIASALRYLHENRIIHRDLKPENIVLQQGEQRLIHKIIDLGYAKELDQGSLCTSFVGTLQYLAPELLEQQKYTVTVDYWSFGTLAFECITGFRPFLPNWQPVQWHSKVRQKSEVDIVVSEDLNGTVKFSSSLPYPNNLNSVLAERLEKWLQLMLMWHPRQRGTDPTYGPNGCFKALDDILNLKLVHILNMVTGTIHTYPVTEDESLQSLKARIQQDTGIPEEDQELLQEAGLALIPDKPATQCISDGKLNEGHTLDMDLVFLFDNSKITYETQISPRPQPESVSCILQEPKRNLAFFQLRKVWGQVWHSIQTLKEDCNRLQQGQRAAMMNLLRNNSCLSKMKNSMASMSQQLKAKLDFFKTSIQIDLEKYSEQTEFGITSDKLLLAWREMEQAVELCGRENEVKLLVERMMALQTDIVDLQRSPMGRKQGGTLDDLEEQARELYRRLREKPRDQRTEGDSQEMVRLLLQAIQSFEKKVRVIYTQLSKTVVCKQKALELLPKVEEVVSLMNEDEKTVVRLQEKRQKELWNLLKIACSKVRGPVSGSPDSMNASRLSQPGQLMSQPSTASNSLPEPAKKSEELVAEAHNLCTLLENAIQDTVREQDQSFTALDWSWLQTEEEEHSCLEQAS

[7] = test system: Mus musculus; test: Toxicity in SCID mouse xenografted with human NCI-H2009 cells assessed as increase in body weight at 1 mg/day, ip treated 6 days in a week for 5 weeks; type: organism-based; conditions: in vivo
[8] = target: Mitogen-activated protein kinase kinase kinase 7 (TAK1) (Homo sapiens) (UniProt O43318); test: Inhibition of TAK1 at 10 uM
[9] = target: T2, Interleukin-1 receptor-associated kinase 4 (Homo sapiens) (UniProt Q9NWZ3); test: Inhibition of IRAK4 at 10 uM
T2 sequence (whole entry): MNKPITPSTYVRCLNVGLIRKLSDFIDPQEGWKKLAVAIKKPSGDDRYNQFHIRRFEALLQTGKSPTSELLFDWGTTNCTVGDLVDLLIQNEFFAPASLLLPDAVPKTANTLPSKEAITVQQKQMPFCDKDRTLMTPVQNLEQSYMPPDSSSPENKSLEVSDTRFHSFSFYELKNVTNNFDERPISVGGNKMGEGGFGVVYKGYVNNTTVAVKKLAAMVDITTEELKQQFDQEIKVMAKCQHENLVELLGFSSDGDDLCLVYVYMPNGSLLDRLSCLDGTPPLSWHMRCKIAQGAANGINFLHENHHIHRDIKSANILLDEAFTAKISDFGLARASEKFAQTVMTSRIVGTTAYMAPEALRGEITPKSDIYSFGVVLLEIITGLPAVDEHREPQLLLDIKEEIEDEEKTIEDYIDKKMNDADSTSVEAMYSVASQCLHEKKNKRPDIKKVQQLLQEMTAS

[10] = test system: NCI-H2009; test: Anticancer activity against human NCI-H2009 cells xenografted in SCID mouse assessed as suppression of tumor growth at 1 mg/day, ip treated 6 days in a week for 5 weeks; type: functional
[11] = target: Interleukin-1 receptor-associated kinase 1 (Homo sapiens) (UniProt P51617); test: Inhibition of IRAK1 at 10 uM
[12] = target: T3, Inhibitor of nuclear factor kappa-B kinase subunit alpha (Homo sapiens) (UniProt O15111); test: Inhibition of IKKalpha at 10 uM
T3 sequence (whole entry): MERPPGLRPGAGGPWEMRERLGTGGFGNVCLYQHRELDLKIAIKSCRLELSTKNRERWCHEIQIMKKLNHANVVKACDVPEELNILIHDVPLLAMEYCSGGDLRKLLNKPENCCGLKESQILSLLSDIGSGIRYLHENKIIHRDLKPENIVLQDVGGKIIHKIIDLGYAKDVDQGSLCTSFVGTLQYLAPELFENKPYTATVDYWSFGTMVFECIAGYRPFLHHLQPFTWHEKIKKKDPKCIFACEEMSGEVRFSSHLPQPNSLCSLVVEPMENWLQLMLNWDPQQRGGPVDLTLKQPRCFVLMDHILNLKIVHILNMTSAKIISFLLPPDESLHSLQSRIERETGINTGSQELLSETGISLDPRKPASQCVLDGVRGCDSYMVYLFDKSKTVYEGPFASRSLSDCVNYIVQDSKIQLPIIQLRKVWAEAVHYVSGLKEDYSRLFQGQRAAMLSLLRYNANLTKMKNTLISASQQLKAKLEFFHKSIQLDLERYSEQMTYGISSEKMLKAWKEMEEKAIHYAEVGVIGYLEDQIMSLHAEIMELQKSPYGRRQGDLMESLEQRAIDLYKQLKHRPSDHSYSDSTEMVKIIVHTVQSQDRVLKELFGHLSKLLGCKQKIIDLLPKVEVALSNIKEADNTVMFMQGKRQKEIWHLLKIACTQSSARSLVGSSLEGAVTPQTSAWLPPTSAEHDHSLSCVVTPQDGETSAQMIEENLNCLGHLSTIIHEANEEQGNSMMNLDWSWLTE

[13] = target: Proto-oncogene tyrosine-protein kinase Src (Homo sapiens) (UniProt P12931); test: Inhibition of c-Src at 10 uM
Proto-oncogene tyrosine-protein kinase Src (Homo sapiens), sequence (P12931 2-536 limits assumed): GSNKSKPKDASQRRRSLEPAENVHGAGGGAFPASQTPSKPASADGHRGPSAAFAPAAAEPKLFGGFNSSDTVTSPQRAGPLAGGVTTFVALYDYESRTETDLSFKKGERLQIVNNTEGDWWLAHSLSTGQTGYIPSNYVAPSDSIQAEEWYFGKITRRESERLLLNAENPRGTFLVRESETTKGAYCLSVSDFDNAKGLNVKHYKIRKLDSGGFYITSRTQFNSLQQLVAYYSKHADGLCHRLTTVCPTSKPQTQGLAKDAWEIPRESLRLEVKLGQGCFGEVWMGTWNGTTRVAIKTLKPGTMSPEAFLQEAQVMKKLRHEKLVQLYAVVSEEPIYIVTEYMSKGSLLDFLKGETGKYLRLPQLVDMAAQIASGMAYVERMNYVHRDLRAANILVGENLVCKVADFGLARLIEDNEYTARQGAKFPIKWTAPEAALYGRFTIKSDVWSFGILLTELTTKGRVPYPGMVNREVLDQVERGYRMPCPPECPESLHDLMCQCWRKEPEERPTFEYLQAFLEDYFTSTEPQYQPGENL

Interleukin-1 receptor-associated kinase 1 (Homo sapiens), sequence (P51617 whole entry, looked up): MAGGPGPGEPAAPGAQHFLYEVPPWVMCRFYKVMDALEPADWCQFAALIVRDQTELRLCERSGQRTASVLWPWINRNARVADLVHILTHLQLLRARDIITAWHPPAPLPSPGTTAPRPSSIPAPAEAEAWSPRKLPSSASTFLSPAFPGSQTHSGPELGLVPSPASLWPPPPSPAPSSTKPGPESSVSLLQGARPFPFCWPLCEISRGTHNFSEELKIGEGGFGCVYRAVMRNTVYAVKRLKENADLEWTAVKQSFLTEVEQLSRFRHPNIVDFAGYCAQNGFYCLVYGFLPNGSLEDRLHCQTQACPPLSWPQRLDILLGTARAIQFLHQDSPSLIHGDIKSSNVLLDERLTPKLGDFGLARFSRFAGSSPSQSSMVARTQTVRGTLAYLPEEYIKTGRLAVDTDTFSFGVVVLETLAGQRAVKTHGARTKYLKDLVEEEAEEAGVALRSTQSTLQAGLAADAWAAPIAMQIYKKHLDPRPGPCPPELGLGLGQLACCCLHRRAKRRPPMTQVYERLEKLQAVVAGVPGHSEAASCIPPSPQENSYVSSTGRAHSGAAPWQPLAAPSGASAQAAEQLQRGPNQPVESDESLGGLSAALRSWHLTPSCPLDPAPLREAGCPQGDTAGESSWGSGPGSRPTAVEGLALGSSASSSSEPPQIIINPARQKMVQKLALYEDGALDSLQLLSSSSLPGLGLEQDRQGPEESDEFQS
Mitogen-activated protein kinase kinase kinase 7 (TAK1) (Homo sapiens), sequence (O43318 whole entry, looked up): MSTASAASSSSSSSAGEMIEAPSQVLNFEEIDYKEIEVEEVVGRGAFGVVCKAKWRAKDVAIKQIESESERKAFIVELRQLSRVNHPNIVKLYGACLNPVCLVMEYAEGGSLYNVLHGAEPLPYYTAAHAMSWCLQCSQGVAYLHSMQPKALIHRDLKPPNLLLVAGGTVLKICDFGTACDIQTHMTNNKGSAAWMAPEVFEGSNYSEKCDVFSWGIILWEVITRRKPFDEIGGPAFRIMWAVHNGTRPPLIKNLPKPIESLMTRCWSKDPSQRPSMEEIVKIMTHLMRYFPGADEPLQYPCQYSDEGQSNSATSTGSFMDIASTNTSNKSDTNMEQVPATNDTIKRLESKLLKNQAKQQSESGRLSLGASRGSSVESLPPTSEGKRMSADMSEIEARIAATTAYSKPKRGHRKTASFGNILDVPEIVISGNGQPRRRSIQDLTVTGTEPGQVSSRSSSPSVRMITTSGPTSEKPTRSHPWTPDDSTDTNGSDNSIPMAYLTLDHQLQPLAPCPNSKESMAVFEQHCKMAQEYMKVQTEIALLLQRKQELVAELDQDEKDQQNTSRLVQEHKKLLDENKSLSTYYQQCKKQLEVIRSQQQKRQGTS

SMILES | IC50 [1] [µM] | GI50 [2] [µM] | GI50 [3] [µM] | other results
COc1cc(O)c(C(=O)/C=C/c2cccc(Br)c2)c(OC)c1 | 12.3 |  |  | 
O=C(/C=C/c1ccccc1)c1ccc(C(F)(F)F)cc1 | > 20 |  |  | 
COc1cc(OC)cc(C(=O)/C=C/c2ccc(OC)c(O)c2)c1 | 8.1 | 3.3 | 2.3 | 
COc1cc(O)c(C(=O)/C=C/c2ccc(Cl)cc2)c(OC)c1 | > 20 |  |  | 
Cc1ccc(C(=O)/C=C/c2ccccc2)cc1 | > 20 |  |  | 
COc1cc(C(=O)/C=C/c2cccc(O)c2)cc(OC)c1OC | 2.3 | 1.7 | 4.2 | 
CCCOc1ccc(/C=C/C(=O)c2c(O)cc(OC)cc2OC)cc1 | > 20 |  |  | 
COc1cc(O)c(C(=O)/C=C/c2ccccc2)c(OC)c1 [FLAVOKAWAIN B] | > 20 |  |  | 
COc1cc(O)c(C(=O)/C=C/c2ccc(OC)c(C)c2)c(OC)c1 | > 20 |  |  | 
COc1ccc(/C=C/C(=O)c2cc(OC)c(OC)c(OC)c2)cc1OCCO | 9.1 | 4.7 | 3.3 | 
O=C(/C=C/c1ccc(O)cc1)c1ccccc1 [4-HYDROXYCHALCONE] | > 20 |  |  | 
COc1ccc(/C=C/C(=O)c2cc(OC)c(OC)c(OC)c2)cc1OCCN | 5.9 | 5.6 | 3.6 | 
COc1cc(C(=O)/C=C/c2ccc(O)c(O)c2)cc(OC)c1OC | 1.9 | 2.6 | 1.1 | 
O=C(/C=C/c1ccccc1)c1ccc(F)c(F)c1 | > 20 |  |  | 
COc1cc(C(=O)/C=C/c2ccc(O)cc2)cc(OC)c1OC | 11.6 | 8.5 | 4.5 | 
COc1cc(O)c(C(=O)/C=C/c2ccc(F)cc2)c(OC)c1 | > 20 |  |  | 
COc1ccc(CCC(=O)c2cc(OC)c(OC)c(OC)c2)cc1O | > 20 | 17.6 | 47 | 

SMILES | IC50 [1] [µM] | GI50 [2] [µM] | GI50 [3] [µM] | other results
COc1ccc(/C=C/C(=O)c2cc(OC)c(OC)c(OC)c2)cc1 | 19.3 | 12.4 | 8.4 | 
COc1cc(O)c(C(=O)/C=C/c2cc(OC)c(OC)c(OC)c2)c(OC)c1 | > 20 |  |  | 
COc1ccc(/C=C/C(=O)c2cc(OC)c(O)c(OC)c2)cc1O | 14.7 | 4 | 7.5 | 
O=C(/C=C/c1ccccc1)c1ccccc1 [CHALCONE] | > 20 |  |  | 
O=C(/C=C/c1ccccc1)c1ccc(F)cc1 | > 20 |  |  | 
COc1cc(O)c(C(=O)/C=C/c2cccc(C)c2)c(OC)c1 | 17 |  |  | 
COc1cc(O)c(C(=O)/C=C/c2ccccc2Br)c(OC)c1 | > 20 |  |  | 
O=C(/C=C/c1ccc(O)c(O)c1)c1ccc(O)cc1O [BUTEIN] | > 20 |  |  | 
COc1ccc(/C=C/C(=O)c2ccc(OC)c(OC)c2)cc1O | 8 | 5.2 | 4.6 | 
O=C(/C=C/c1ccc(O)cc1)c1ccc(O)cc1O [ISOLIQUIRITIGENIN] | > 20 |  |  | 
COc1cc(O)c(C(=O)/C=C/c2ccccc2C)c(OC)c1 | > 20 |  |  | 
COc1ccc(/C=C/C(=O)c2c(O)cc(OC)cc2OC)cc1 [FLAVOKAWAIN A] | > 20 |  |  | 
COc1cc(C(=O)/C=C/c2ccccc2)cc(OC)c1OC | 8.9 | 8.8 | 6.6 | 
O=C(/C=C/c1ccccc1)c1ccccc1O [2'-HYDROXYCHALCONE] | > 20 |  |  | 
COc1cc(O)c(C(=O)/C=C/c2ccc(OC)c(O)c2)c(OC)c1 | > 20 |  |  | 
COc1ccc(/C=C/C(=O)c2cc(OC)c(OC)c(OC)c2)cc1O | 5.1 | 2.1 | 5.2 | Activity [4]: Non-toxic; Activity [5]: Non-toxic; inhibition [6]: 46%; Activity [7]: Non-toxic; inhibition [8]: inactive; inhibition [9]: 41%; Activity [10]: 57%; inhibition [11]: inactive; inhibition [12]: inactive; inhibition [13]: inactive

Reference: ChEMBL document CHEMBL1156143, “Structure-activity relationship studies of chalcone leading to 3-hydroxy-4,3',4',5'-tetramethoxychalcone and its analogues as potent nuclear factor kappaB inhibitors and their anticancer activities” (J Med Chem, 2009)
